Reference: US11834453B2, “Substituted pyrimido[5,4-d]pyrimidines as HER2 inhibitors” (Array BioPharma Inc., priority 2020, dated 2023)
pIC50: −log10 of the molar value. Like-named read-outs stand apart in the source and are kept apart here.

Key:
[1] = molecular target: ErbB2 insYVMA (HER2-YVMA, SEQ ID NO: 2) (Homo sapiens, UniProt P04626, INS775YVMA/P1170A); assay: biochemical; settings: ErbB2 insYVMA enzyme assay; for pIC50: read-out: Assay 1 IC50; for IC50: Assay 1 IC50 (nM)
[2] = molecular target: ErbB2 WT (Homo sapiens (Human), UniProt P04626); assay: ErbB enzyme assay (CisBio HTRF KinEASE-TK), Assay 2; type: biochemical
Procedure, shortened: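 ErbB2 phosphorylates 250 nM biotin-TK substrate at 1 mM ATP in 25 mM HEPES pH 7.4, 10 mM MgCl2, 0.01% Triton X-100 and 2% DMSO, for 30 min at 22 °C. Product is detected by HTRF with Sa-XL665 and TK-Ab-Cryptate. Percent of control is set by DMSO-only wells and pre-quenched wells.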

[3] = molecular target: EGFR (Homo sapiens (Human), UniProt P00533); assay: ErbB enzyme assay (CisBio HTRF KinEASE-TK), Assay 3; type: biochemical
Procedure, shortened: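 Kinase + 250 nM biotin TK-substrate, 1 mM ATP, cpd (3-fold dil.), HEPES pH 7.4/10 mM MgCl2/0.01% Triton/2% DMSO; 30 min 22 °C. Quench w/ Sa-XL665 + TK-Ab-Cryptate, 1 h, HTRF. IC50 = 50 POC on 4PL fit.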

[4] = molecular target: ErbB2 with Exon 20 YVMA insertion (HER2-YVMA) (Homo sapiens (Human), UniProt P04626, INS775YVMA); assay: Cellular phosphorylation assay, constitutive ErbB2 phosphorylation (Y1196) in engineered NIH 3T3 cells, Assay 4; type: cell-based
Procedure, shortened: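 Engineered NIH 3T3 cells expressing HER2-YVMA treated with compounds 1 h at 37 °C, then formaldehyde-fixed and methanol-permeabilized. pErbB2 Y1196 detected by in-cell infrared immunofluorescence, normalized to GAPDH. IC50 from the normalized curves.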

[5] = molecular target: EGFR wild type (EGFR WT) (Homo sapiens (Human), UniProt P00533); assay: Cellular phosphorylation assay, EGF-stimulated EGFR phosphorylation in engineered NIH 3T3 cells, Phospho-EGFR DuoSet IC ELISA, Assay 5; type: cell-based
Procedure, shortened: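 NIH 3T3 cells expressing EGFR WT (20,000/well, attached overnight) were exposed to serially diluted compound for 1 h at 37 °C, then stimulated with 100 ng/ml rEGF for 10 min. Phospho-EGFR in lysates measured by sandwich ELISA optical density; IC50 from curves.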

[6] = molecular target: T1, MDR1 (P-gp) (Homo sapiens (Human), UniProt P08183); assay: MDR1 transfected MDCKII canine Mdr1 knockout permeability/efflux, Assay 7; settings: dog, MDCK-MDR1
Procedure: Both MDR1 transfected LLC-PK1 (Assay 6) and MDR1 transfected MDCKII canine Mdr1 knockout cells (Assay 7) were cultured and plated according to manufacturer's recommendations with the exception that the passage media for the MDR1 transfected LLC-PK1 cell line contained only 2% fetal bovine serum so as to extend passage time out to seven days.
Both positive and negative controls were used to assess functionality of P-gp or BCRP efflux in the assays. Stock solutions for assay controls and the test article were prepared in DMSO for final test concentration of 1 μM. Final organic concentration in the assay was 1%. All dosing solutions contained 10 μM lucifer yellow to monitor MDCKII cell monolayer integrity.
For the apical to basolateral determination (A to B), 75 μL of the test article in transport buffer were added to the apical side of the individual transwells and 250 μL of basolateral media, without compound or lucifer yellow, were added to each well. For the basolateral to apical determination (B to A), 250 μL of test article in transport buffer were added to each well and 75 μL transport buffer, without compound or lucifer yellow, were added to each transwell. All tests were performed in triplicate, and each compound was tested for both apical to basolateral and basolateral to apical transport. The plates were incubated for 2 hours on a Lab-Line Instruments Titer Orbital Shaker (VWR, West Chester, PA) at 50 rpm and 37° C. with 5% CO2. All culture plates were removed from the incubator, 50 μL of media were removed from the apical and basolateral portion of each well, and added to 150 μL of 1 μM labetalol in 2:1 acetonitrile (ACN): H2O, v/v.
The plates were read using a Molecular Devices (Sunnyvale, CA) Gemini Fluorometer to evaluate the lucifer yellow concentrations at excitation/emission wavelengths of 425/535 nm. These values were accepted when found to be below 2% for apical to basolateral and 5% basolateral to apical flux across the MDR1-transfected LLC-PK1 or BCRP-transfected MDCKII cell monolayers. The plates were sealed, and the contents of each well analyzed by LC MS/MS. The compound concentrations were determined from the ratio of the peak areas of the compound to the internal standard (labetalol) in comparison to the dosing solution.
A MDS Sciex API 4000 (Applied Biosystems, Foster City, CA) mass spectrometer was used for detection of the analytes in the ion spray positive mode. Analyte responses were measured by multiple reaction monitoring (“MRM”) of transitions unique to each compound (the protonated precursor ion and selected product ions for each test article and m/z 329 to m/z 162 for labetalol, the internal standard.
The total run time, including re-equilibration, for a single injection was 1.2 minutes. […] The total run time, including re-equilibration, for a single injection was 0.61 minutes.
An efflux ratio is calculated from the mean apical to basolateral (A-B) Papp data and basolateral to apical (B-A) Papp data: Efflux ratio=Papp(B−A)/Papp(A−B)

[7] = molecular target: T1, MDR1 (P-gp); assay: MDR1 transfected LLC-PK1 permeability/efflux, Assay 6; settings: pig
[8] = molecular target: BCRP (Homo sapiens (Human), UniProt Q9UNQ0); assay: BCRP transfected MDCKII canine Mdr1 knockout permeability/efflux, Assay 9; settings: dog
[9] = LLC-PK1, Assay 6 Pe Ratio, efflux ratio Papp(B-A)/Papp(A-B), MDR1 transfected LLC-PK1
[10] = Assay 9 Pe Ratio, efflux ratio Papp(B-A)/Papp(A-B), BCRP transfected MDCKII canine Mdr1 knockout

Sequence of ErbB2 insYVMA (HER2-YVMA, SEQ ID NO: 2) (P04626 with tags, fused parts or gaps INS775YVMA/P1170A limits assumed): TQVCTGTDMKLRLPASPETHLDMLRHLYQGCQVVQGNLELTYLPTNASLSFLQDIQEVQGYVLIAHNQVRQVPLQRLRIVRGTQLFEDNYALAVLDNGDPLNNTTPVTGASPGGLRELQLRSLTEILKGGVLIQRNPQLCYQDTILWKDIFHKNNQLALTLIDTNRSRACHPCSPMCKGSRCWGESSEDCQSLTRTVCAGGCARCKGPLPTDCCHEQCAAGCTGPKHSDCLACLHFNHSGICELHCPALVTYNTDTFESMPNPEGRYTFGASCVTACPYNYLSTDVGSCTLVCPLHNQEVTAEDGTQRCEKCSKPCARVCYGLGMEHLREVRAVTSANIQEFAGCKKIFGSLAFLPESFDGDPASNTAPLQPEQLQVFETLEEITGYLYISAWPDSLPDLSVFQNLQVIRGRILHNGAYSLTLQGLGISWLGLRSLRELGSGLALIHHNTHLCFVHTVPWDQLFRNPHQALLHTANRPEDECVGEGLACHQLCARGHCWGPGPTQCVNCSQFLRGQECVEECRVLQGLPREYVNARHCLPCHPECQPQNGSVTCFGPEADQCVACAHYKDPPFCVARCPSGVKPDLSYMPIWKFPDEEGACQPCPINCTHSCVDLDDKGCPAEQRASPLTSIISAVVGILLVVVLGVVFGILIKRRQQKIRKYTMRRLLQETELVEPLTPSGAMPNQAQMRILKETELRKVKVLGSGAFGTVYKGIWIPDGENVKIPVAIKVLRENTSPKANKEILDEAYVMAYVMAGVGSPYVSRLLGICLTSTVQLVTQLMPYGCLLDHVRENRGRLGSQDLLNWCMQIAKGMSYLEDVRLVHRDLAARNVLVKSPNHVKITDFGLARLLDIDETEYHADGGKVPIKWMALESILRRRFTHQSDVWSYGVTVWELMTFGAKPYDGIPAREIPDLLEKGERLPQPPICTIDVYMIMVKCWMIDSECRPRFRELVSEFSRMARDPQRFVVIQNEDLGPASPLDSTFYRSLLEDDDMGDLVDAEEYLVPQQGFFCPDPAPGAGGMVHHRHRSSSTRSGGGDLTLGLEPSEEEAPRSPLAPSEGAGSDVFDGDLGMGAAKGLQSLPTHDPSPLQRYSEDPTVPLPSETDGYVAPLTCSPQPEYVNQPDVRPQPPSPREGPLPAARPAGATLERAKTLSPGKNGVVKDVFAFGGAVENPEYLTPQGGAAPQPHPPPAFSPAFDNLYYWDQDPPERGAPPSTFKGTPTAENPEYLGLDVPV
T1 sequence (P08183 whole entry): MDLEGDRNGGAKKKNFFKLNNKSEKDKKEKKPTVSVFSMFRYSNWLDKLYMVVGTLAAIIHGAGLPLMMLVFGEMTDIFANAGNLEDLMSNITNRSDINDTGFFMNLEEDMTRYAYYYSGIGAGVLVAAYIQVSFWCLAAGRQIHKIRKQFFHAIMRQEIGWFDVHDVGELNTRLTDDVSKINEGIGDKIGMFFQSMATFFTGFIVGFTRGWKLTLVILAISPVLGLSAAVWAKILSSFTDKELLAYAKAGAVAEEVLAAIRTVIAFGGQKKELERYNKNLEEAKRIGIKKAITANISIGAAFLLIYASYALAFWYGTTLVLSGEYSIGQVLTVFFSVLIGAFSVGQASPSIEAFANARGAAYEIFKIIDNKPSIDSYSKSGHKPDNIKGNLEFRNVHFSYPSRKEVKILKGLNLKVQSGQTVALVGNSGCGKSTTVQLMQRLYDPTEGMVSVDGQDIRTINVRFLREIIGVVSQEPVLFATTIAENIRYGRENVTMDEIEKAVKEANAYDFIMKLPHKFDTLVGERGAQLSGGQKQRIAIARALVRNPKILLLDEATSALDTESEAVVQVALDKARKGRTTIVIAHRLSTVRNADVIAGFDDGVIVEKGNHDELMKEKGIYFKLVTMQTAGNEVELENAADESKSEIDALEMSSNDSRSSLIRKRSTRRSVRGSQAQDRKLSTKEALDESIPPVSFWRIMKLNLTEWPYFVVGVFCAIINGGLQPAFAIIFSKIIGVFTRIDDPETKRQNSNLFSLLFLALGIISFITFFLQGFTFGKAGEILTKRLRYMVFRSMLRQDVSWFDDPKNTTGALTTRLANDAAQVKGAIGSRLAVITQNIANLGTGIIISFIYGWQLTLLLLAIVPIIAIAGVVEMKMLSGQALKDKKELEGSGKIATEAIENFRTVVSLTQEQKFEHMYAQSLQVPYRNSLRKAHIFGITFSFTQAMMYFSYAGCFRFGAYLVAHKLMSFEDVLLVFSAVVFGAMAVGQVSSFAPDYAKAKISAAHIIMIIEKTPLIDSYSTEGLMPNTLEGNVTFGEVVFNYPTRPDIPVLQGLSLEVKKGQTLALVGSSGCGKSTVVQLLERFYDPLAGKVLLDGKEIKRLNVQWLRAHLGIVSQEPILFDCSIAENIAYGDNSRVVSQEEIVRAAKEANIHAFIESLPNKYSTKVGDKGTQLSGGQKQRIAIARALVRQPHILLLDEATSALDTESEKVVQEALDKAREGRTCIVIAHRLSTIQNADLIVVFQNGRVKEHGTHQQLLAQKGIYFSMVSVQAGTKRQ
Sequence of ErbB2 with Exon 20 YVMA insertion (HER2-YVMA) (P04626 other isoform, or with tags, fused parts or gaps ins YVMA behind 775): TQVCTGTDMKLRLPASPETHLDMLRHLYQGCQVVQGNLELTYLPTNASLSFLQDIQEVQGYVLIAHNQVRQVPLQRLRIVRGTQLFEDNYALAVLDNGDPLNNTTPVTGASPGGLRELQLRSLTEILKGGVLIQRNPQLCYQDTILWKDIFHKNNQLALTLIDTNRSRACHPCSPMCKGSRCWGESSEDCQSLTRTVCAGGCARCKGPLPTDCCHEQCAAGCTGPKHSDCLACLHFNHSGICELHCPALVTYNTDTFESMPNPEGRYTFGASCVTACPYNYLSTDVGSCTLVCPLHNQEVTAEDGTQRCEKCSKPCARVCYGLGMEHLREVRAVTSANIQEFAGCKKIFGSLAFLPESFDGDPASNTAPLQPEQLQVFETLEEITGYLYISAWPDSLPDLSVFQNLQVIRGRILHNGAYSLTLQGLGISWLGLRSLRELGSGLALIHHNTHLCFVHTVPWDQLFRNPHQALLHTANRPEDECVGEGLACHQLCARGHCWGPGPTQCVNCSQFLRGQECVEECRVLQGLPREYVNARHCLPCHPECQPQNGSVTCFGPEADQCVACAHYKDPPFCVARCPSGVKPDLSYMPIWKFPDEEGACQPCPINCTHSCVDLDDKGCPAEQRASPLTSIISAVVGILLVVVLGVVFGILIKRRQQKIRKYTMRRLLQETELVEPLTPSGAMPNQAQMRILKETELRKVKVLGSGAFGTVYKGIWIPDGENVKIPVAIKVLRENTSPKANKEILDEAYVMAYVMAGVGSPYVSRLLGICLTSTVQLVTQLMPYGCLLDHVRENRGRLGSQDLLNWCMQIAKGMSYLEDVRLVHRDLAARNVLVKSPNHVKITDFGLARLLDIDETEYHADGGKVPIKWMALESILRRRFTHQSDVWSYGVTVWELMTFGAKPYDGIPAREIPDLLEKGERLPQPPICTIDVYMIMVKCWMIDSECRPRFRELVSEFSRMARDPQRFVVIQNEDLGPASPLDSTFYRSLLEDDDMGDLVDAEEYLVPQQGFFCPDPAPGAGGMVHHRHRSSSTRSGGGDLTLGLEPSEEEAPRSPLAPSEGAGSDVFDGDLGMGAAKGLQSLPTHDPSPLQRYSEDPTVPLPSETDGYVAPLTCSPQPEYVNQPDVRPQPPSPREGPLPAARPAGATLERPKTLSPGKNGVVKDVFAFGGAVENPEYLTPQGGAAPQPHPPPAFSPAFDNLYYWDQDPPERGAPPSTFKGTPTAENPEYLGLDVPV
Sequence of BCRP (Q9UNQ0 whole entry): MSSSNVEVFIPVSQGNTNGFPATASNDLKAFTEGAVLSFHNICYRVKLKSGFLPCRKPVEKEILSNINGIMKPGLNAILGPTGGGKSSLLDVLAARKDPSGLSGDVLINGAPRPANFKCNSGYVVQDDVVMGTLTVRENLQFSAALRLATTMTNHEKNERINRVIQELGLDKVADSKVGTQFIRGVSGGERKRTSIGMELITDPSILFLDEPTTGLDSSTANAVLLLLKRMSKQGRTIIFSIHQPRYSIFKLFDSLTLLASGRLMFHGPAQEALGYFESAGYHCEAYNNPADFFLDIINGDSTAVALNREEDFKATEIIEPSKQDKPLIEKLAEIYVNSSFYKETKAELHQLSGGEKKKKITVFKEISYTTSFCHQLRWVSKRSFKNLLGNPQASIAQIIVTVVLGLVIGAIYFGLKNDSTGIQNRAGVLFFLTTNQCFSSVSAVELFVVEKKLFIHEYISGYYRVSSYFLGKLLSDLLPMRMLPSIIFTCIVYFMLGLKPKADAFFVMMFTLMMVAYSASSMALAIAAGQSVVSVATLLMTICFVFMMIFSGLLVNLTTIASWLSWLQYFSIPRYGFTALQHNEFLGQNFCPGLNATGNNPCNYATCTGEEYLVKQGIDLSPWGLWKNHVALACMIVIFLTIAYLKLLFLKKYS

CN(c1ncc2ncnc(Nc3ccc(Oc4ccn5ncnc5c4)c(Cl)c3)c2n1)[C@H]1CCCOC1 [Example 360]
pIC50 [1]: 7.60
pIC50 [2]: 7.59
pIC50 [3]: ≤ 5.00
pIC50 [4]: 7.53
pIC50 [5]: ≤ 5.30
efflux ratio at 2 h, 1 μM [6]: 1.3

CC1(O)CCN(c2ncc3ncnc(Nc4ccc(Oc5ccn6ncnc6c5)c(Cl)c4)c3n2)CC1 [Example 435]
pIC50 [1]: 7.93
pIC50 [2]: 7.48
pIC50 [3]: 5.31
pIC50 [4]: 7.46
pIC50 [5]: ≤ 5.30
efflux ratio at 2 h, 1 μM [6]: 1.2

Cc1cc(Nc2ncnc3cnc(N(C)C[C@H](C)O)nc23)ccc1Oc1ccc2c(c1)ncn2C [Example 195, (S)-1-(methyl(8-((3-methyl-4-((1-methyl-1H-benzo[d]imidazol-5-yl)oxy)phenyl)amino)pyrimido[5,4-d]pyrimidin-2-yl)amino)propan-2-ol]
pIC50 [1]: 7.76
pIC50 [3]: 5.14
pIC50 [4]: 8.00
pIC50 [5]: ≤ 5.30
efflux ratio at 2 h, 1 μM [6]: 4.6

Cc1cc(Nc2ncnc3cnc(N4CC[C@@H](O)C4)nc23)ccc1Oc1ccc2c(c1)ncn2C [Example 169, (R)-1-(8-((3-methyl-4-((1-methyl-1H-benzo[d]imidazol-5-yl)oxy)phenyl)amino)pyrimido[5,4-d]pyrimidin-2-yl)pyrrolidin-3-ol]
pIC50 [1]: 8.07
pIC50 [2]: 7.95
pIC50 [3]: 5.79
pIC50 [4]: 8.33
pIC50 [5]: ≤ 5.30
efflux ratio at 2 h, 1 μM [6]: 3.6

Cc1cc(Nc2ncnc3cnc(N4C[C@@H](C)[C@H](O)C4)nc23)ccc1Oc1ccc2c(c1)ncn2C [Example 167, (3S,4R)-4-methyl-1-(8-((3-methyl-4-((1-methyl-1H-benzo[d]imidazol-5-yl)oxy)phenyl)amino)pyrimido[5,4-d]pyrimidin-2-yl)pyrrolidin-3-ol]
pIC50 [1]: 7.75
pIC50 [2]: 7.46
pIC50 [3]: 5.04
pIC50 [4]: 7.62
pIC50 [5]: ≤ 5.30
efflux ratio at 2 h, 1 μM [6]: 2.8

Cn1cnc2cc(Oc3ccc(Nc4ncnc5cnc(N6CCN7CCOC[C@H]7C6)nc45)cc3Cl)ccc21.O=C(O)C(F)(F)F.O=C(O)C(F)(F)F [Example 150, (R)—N-(3-chloro-4-((1-methyl-1H-benzo[d]imidazol-5-yl)oxy)phenyl)-6-(hexahydropyrazino[2,1-c][1,4]oxazin-8(1H)-yl)pyrimido[5,4-d]pyrimidin-4-amine bis(2,2,2-trifluoroacetate)]
IC50 [1]: 32 nM
pIC50 [2]: 7.65
pIC50 [3]: ≤ 5.00
pIC50 [4]: 8.04
pIC50 [5]: ≤ 5.30
efflux ratio at 2 h, 1 μM [6]: 2.2

CN(CCC(C)(C)O)c1ncc2ncnc(Nc3ccc(Oc4ccn5ncnc5c4)c(Cl)c3)c2n1 [Example 101, 4-((8-((4-([1,2,4]triazolo[1,5-a]pyridin-7-yloxy)-3-chlorophenyl)amino)pyrimido[5,4-d]pyrimidin-2-yl)(methyl)amino)-2-methylbutan-2-ol]
pIC50 [1]: 7.81
pIC50 [2]: 7.83
pIC50 [3]: ≤ 5.00
pIC50 [4]: 8.09
pIC50 [5]: ≤ 5.30
efflux ratio at 2 h, 1 μM [6]: 1.5

Cn1cnc2cc(Oc3ccc(Nc4ncnc5cnc(N6CCOCC6)nc45)cc3F)ccc21.O=C(O)C(F)(F)F [Example 80, N-(3-fluoro-4-((1-methyl-1H-benzo[d]imidazol-5-yl)oxy)phenyl)-6-morpholinopyrimido[5,4-d]pyrimidin-4-amine 2,2,2-trifluoroacetate]
IC50 [1]: 35.6 nM
pIC50 [2]: 6.37
pIC50 [3]: ≤ 5.00
pIC50 [4]: 7.33
pIC50 [5]: ≤ 5.30
efflux ratio at 2 h, 1 μM [7, 9]: 2.1
efflux ratio at 2 h, 1 μM [8, 10]: 2.4

Cc1cc(Nc2ncnc3cnc(NCC(F)F)nc23)ccc1Oc1cc(F)c2c(c1)ncn2C [Example 207, N2-(2,2-difluoroethyl)-N8-(4-((7-fluoro-1-methyl-1H-benzo[d]imidazol-5-yl)oxy)-3-methylphenyl)pyrimido[5,4-d]pyrimidine-2,8-diamine]
pIC50 [1]: 7.65
pIC50 [2]: 7.35
pIC50 [3]: 5.76
pIC50 [4]: 7.77
pIC50 [5]: ≤ 5.30
efflux ratio at 2 h, 1 μM [7, 9]: 1.6
efflux ratio at 2 h, 1 μM [8, 10]: 1.7

Cc1cc(Nc2ncnc3cnc(N4C[C@@H]5CC[C@H]4CO5)nc23)ccc1Oc1ccc2c(c1)ncn2C [Example 53, 6-((1S,4S)-2-oxa-5-azabicyclo[2.2.2]octan-5-yl)-N-(3-methyl-4-((1-methyl-1H-benzo[d]imidazol-5-yl)oxy)phenyl)pyrimido[5,4-d]pyrimidin-4-amine]
pIC50 [1]: 7.60
pIC50 [2]: 7.12
pIC50 [3]: ≤ 5.00
pIC50 [4]: 7.37
pIC50 [5]: ≤ 5.30
efflux ratio at 2 h, 1 μM [7, 9]: 1.7
efflux ratio at 2 h, 1 μM [8, 10]: 1.6

Cc1cc(Nc2ncnc3cnc(N4CCC45COC5)nc23)ccc1Oc1cc(F)c2c(c1)ncn2C [Example 216, N-(4-((7-fluoro-1-methyl-1H-benzo[d]imidazol-5-yl)oxy)-3-methylphenyl)-6-(6-oxa-1-azaspiro[3.3]heptan-1-yl)pyrimido[5,4-d]pyrimidin-4-amine]
pIC50 [1]: 7.48
pIC50 [2]: 7.31
pIC50 [3]: 5.63
pIC50 [4]: 7.80
pIC50 [5]: ≤ 5.30
efflux ratio at 2 h, 1 μM ([7]; LLC-PK1): 1.7
efflux ratio at 2 h, 1 μM [8]: 0.9

Cc1cc(Nc2ncnc3cnc(N4CC5(CCO5)C4)nc23)ccc1Oc1ccc2c(c1)ncn2C [Example 282]
pIC50 [1]: 7.40
pIC50 [2]: 7.08
pIC50 [3]: ≤ 5.00
pIC50 [4]: 7.58
pIC50 [5]: ≤ 5.30
efflux ratio at 2 h, 1 μM [7, 9]: 1.9
efflux ratio at 2 h, 1 μM [8, 10]: 3.5

Cc1ncc(-c2ncc3ncnc(Nc4ccc(Oc5ccc6c(c5)ncn6C)c(C)c4)c3n2)o1 [Example 223]
pIC50 [1]: 7.04
pIC50 [2]: 7.00
pIC50 [3]: ≤ 5.00
pIC50 [4]: 7.90
pIC50 [5]: ≤ 5.30
efflux ratio at 2 h, 1 μM [7, 9]: 1.9
efflux ratio at 2 h, 1 μM [8, 10]: 3.7

Cc1cc(Nc2ncnc3cnc(N4CCOC(C)(C)C4)nc23)ccc1Oc1ccc2c(c1)ncn2C [Example 272]
pIC50 [1]: 7.17
pIC50 [2]: 6.98
pIC50 [3]: 5.05
pIC50 [4]: 7.40
pIC50 [5]: ≤ 5.30
efflux ratio at 2 h, 1 μM [7, 9]: 1.6
efflux ratio at 2 h, 1 μM [8, 10]: 0.6

Cc1cc(Nc2ncnc3cnc(-c4cnco4)nc23)ccc1Oc1ccc2c(c1)ncn2C [Example 48, N-(3-methyl-4-((1-methyl-1H-benzo[d]imidazol-5-yl)oxy)phenyl)-6-(oxazol-5-yl)pyrimido[5,4-d]pyrimidin-4-amine]
pIC50 [1]: 7.25
pIC50 [2]: 6.72
pIC50 [3]: ≤ 5.00
pIC50 [4]: 7.31
pIC50 [5]: ≤ 5.30
efflux ratio at 2 h, 1 μM [7, 9]: 1.6
efflux ratio at 2 h, 1 μM [8, 10]: 7.2

CNc1ncc2ncnc(Nc3ccc(Oc4cc(F)c5c(c4)ncn5C)c(C)c3)c2n1 [Example 88, N8-(4-((7-fluoro-1-methyl-1H-benzo[d]imidazol-5-yl)oxy)-3-methylphenyl)-N2-methylpyrimido[5,4-d]pyrimidine-2,8-diamine]
pIC50 [1]: 8.32
pIC50 [2]: 8.07
pIC50 [3]: 5.02
pIC50 [4]: 8.29
pIC50 [5]: ≤ 5.30
efflux ratio at 2 h, 1 μM [7, 9]: 1.9
efflux ratio at 2 h, 1 μM [8, 10]: 1

Cc1cc(Nc2ncnc3cnc(N4CC5C(C4)C5(F)F)nc23)ccc1Oc1ccc2c(c1)ncn2C (centres unmarked) [Example 234]
pIC50 [1]: 6.98
pIC50 [2]: 6.78
pIC50 [3]: ≤ 5.00
pIC50 [4]: 7.41
pIC50 [5]: ≤ 5.30
efflux ratio at 2 h, 1 μM [7, 9]: 1.8
efflux ratio at 2 h, 1 μM [8, 10]: 5.2

Cc1cc(Nc2ncnc3cnc(N4CCOCC4)nc23)c(F)cc1Oc1ccc2c(c1)ncn2C.O=C(O)C(F)(F)F [Example 78, N-(2-fluoro-5-methyl-4-((1-methyl-1H-benzo[d]imidazol-5-yl)oxy)phenyl)-6-morpholinopyrimido[5,4-d]pyrimidin-4-amine 2,2,2-trifluoroacetate]
IC50 [1]: 60.4 nM
pIC50 [2]: 6.37
pIC50 [3]: ≤ 5.00
pIC50 [4]: 7.44
pIC50 [5]: ≤ 5.30
efflux ratio at 2 h, 1 μM [7, 9]: 1.3
efflux ratio at 2 h, 1 μM [8, 10]: 1.1

Cc1cc(Nc2ncnc3cnc(N4CCC4)nc23)ccc1Oc1ccc2c(c1)ncn2C [Example 36, 6-(azetidin-1-yl)-N-(3-methyl-4-((1-methyl-1H-benzo[d]imidazol-5-yl)oxy)phenyl)pyrimido[5,4-d]pyrimidin-4-amine]
pIC50 [1]: 7.58
pIC50 [2]: 7.19
pIC50 [3]: 5.05
pIC50 [4]: 7.38
pIC50 [5]: ≤ 5.30
efflux ratio at 2 h, 1 μM [7, 9]: 1.2
efflux ratio at 2 h, 1 μM [8, 10]: 0.9
